From ChEMBL document CHEMBL1649501, “Integration of pharmacokinetic and pharmacodynamic indices of orbifloxacin in beagle dogs after a single intravenous and intramuscular administration” (Antimicrob Agents Chemother, 2009)
In brackets after ≈: the same amount, converted by molar mass.

Legend:
[1] = tested on: Staphylococcus intermedius; assay: Antibacterial activity against Staphylococcus intermedius clinical isolate infected in Beagle dog assessed as bacterial load at 2.5 mg/kg, im after 24 hrs; assay type: functional; details: route intramuscular
[2] = Terminal half life in Beagle dog at 2.5 mg/kg, im; assay type: ADME, organism-based, Canis lupus familiaris; parameters: dose 2.5 mg/kg, route intramuscular; details: in vivo, read-out: beta t1/2 (converted)
[3] = Ratio of Cmax to MIC in Beagle dog infected with Proteus mirabilis at 2.5 mg/kg, im; assay type: functional; details: route intramuscular
[4] = Ratio of Cmax to MIC in Beagle dog infected with Staphylococcus intermedius at 2.5 mg/kg, im; assay type: functional; details: route intramuscular
[5] = Ratio of AUC (0 to 24 hrs) to MIC in Beagle dog infected with Staphylococcus intermedius at 2.5 mg/kg, im; assay type: functional; details: route intramuscular
[6] = Bioavailability in Beagle dog at 2.5 mg/kg, im; assay type: ADME, organism-based, Canis lupus familiaris; details: in vivo
[7] = Ratio of AUC (0 to 24 hrs) to MIC in Beagle dog infected with Escherichia coli at 2.5 mg/kg, iv; assay type: functional
[8] = Ratio of AUC (0 to 24 hrs) to MIC in Beagle dog infected with Staphylococcus aureus at 2.5 mg/kg, im; assay type: functional; details: route intramuscular
[9] = T>MIC in Beagle dog infected with Staphylococcus aureus at 2.5 mg/kg, im; assay type: functional; details: route intramuscular
[10] = Elimination rate constant in Beagle dog at 2.5 mg/kg, im; assay type: ADME, organism-based, Canis lupus familiaris; parameters: dose 2.5 mg/kg, route intramuscular; details: in vivo
[11] = T>MIC in Beagle dog infected with Staphylococcus intermedius at 2.5 mg/kg, im; assay type: functional; details: route intramuscular
[12] = Ratio of AUC (0 to 24 hrs) to MIC in Beagle dog infected with Escherichia coli at 2.5 mg/kg, im; assay type: functional; details: route intramuscular
[13] = Ratio of AUC (0 to 24 hrs) to MIC in Beagle dog infected with Staphylococcus aureus at 2.5 mg/kg, iv; assay type: functional
[14] = T>MIC in Beagle dog infected with Staphylococcus intermedius at 2.5 mg/kg, iv; assay type: functional
[15] = T>MIC in Beagle dog infected with Proteus mirabilis at 2.5 mg/kg, iv; assay type: functional
[16] = tested on: Staphylococcus intermedius; assay: Antibacterial activity against Staphylococcus intermedius by broth microdilution method; assay type: functional
[17] = Ratio of Cmax to MIC in Beagle dog infected with Escherichia coli at 2.5 mg/kg, im; assay type: functional; details: route intramuscular
[18] = AUC (0 to 24 hrs) in Beagle dog at 2.5 mg/kg, iv; assay type: ADME, organism-based, Canis lupus familiaris; parameters: time < 24 hr, dose 2.5 mg/kg, route intravenous; details: plasma
[19] = Mean residence time (0 to infinity) in Beagle dog at 2.5 mg/kg, iv; assay type: ADME, organism-based, Canis lupus familiaris; parameters: dose 2.5 mg/kg, route intravenous; details: in vivo
[20] = Tmax in Beagle dog at 2.5 mg/kg, im; assay type: ADME, organism-based, Canis lupus familiaris; parameters: dose 2.5 mg/kg, route intramuscular; details: in vivo
[21] = Ratio of AUC (0 to 24 hrs) to MIC in Beagle dog infected with Staphylococcus intermedius at 2.5 mg/kg, iv; assay type: functional
Canis familiaris = assay: Mean absorption time in Beagle dog at 2.5 mg/kg, im; assay type: ADME, organism-based, Canis lupus familiaris; parameters: dose 2.5 mg/kg, route intramuscular; details: in vivo
[22] = AUC (0 to infinity) in Beagle dog at 2.5 mg/kg, im; assay type: ADME, organism-based, Canis lupus familiaris; parameters: time infinity, dose 2.5 mg/kg, route intramuscular; details: plasma
[23] = Cmax in Beagle dog at 2.5 mg/kg, im; assay type: ADME, organism-based, Canis lupus familiaris; parameters: dose 2.5 mg/kg, route intramuscular; details: in vivo
[24] = Mean residence time (0 to 24 hrs) in Beagle dog at 2.5 mg/kg, iv; assay type: ADME, organism-based, Canis lupus familiaris; parameters: dose 2.5 mg/kg, route intravenous; details: in vivo
[25] = Elimination rate constant in Beagle dog at 2.5 mg/kg, iv; assay type: ADME, organism-based, Canis lupus familiaris; parameters: dose 2.5 mg/kg, route intravenous; details: in vivo
[26] = T>MIC in Beagle dog infected with Proteus mirabilis at 2.5 mg/kg, im; assay type: functional; details: route intramuscular
[27] = Ratio of AUC (0 to 24 hrs) to MIC in Beagle dog infected with Proteus mirabilis at 2.5 mg/kg, iv; assay type: functional
[28] = Ratio of AUC (0 to 24 hrs) to MIC for bacterial elimination in Beagle dog infected with Staphylococcus intermedius clinical isolate at 2.5 mg/kg, im; assay type: functional; details: route intramuscular
[29] = Ratio of AUC (0 to 24 hrs) to MIC for bactericidal action in Beagle dog infected with Staphylococcus intermedius clinical isolate at 2.5 mg/kg, im; assay type: functional; details: route intramuscular
Proteus mirabilis [30] = assay: Antibacterial activity against Proteus mirabilis after 30 hrs by broth microdilution method; assay type: functional, organism-based
Staphylococcus aureus [31] = assay: Antibacterial activity against Staphylococcus aureus by broth microdilution method; assay type: functional
[32] = T>MIC in Beagle dog infected with Escherichia coli at 2.5 mg/kg, im; assay type: functional; details: route intramuscular
Staphylococcus aureus [33] = assay: Antibacterial activity against Staphylococcus aureus after 30 hrs by broth microdilution method; assay type: functional, organism-based
[34] = Volume of distribution at steady state in Beagle dog at 2.5 mg/kg, iv; assay type: ADME, organism-based, Canis lupus familiaris; parameters: dose 2.5 mg/kg, route intravenous; details: in vivo
[35] = AUC (0 to 24 hrs) in Beagle dog at 2.5 mg/kg, im; assay type: ADME, organism-based, Canis lupus familiaris; parameters: time < 24 hr, dose 2.5 mg/kg, route intramuscular; details: plasma
[36] = AUC (0 to infinity) in Beagle dog at 2.5 mg/kg, iv; assay type: ADME, organism-based, Canis lupus familiaris; parameters: time infinity, dose 2.5 mg/kg, route intravenous; details: plasma
[37] = Mean residence time (0 to infinity) in Beagle dog at 2.5 mg/kg, im; assay type: ADME, organism-based, Canis lupus familiaris; parameters: dose 2.5 mg/kg, route intramuscular; details: in vivo
Proteus mirabilis [38] = assay: Antibacterial activity against Proteus mirabilis by broth microdilution method; assay type: functional
[39] = Ratio of AUC (0 to 24 hrs) to MIC in Beagle dog infected with Proteus mirabilis at 2.5 mg/kg, im; assay type: functional; details: route intramuscular
[40] = Ratio of AUC (0 to 24 hrs) to MIC for bacteriostatic action in Beagle dog infected with Staphylococcus intermedius clinical isolate at 2.5 mg/kg, im; assay type: functional; details: route intramuscular
[41] = Terminal half life in Beagle dog at 2.5 mg/kg, iv; assay type: ADME, organism-based, Canis lupus familiaris; parameters: dose 2.5 mg/kg, route intravenous; details: in vivo, read-out: beta t1/2 (converted)
Staphylococcus aureus [42] = assay: Antibacterial activity against Staphylococcus aureus ATCC 29213 by broth microdilution method; assay type: functional
Escherichia coli [43] = assay: Antibacterial activity against Escherichia coli by broth microdilution method; assay type: functional
[44] = tested on: Staphylococcus intermedius; assay: Antibacterial activity against Staphylococcus intermedius after 30 hrs by broth microdilution method; assay type: functional, organism-based
[45] = Ratio of Cmax to MIC in Beagle dog infected with Staphylococcus aureus at 2.5 mg/kg, im; assay type: functional; details: route intramuscular
[46] = T>MIC in Beagle dog infected with Escherichia coli at 2.5 mg/kg, iv; assay type: functional
[47] = T>MIC in Beagle dog infected with Staphylococcus aureus at 2.5 mg/kg, iv; assay type: functional
[48] = Clearance in Beagle dog at 2.5 mg/kg, iv; assay type: ADME, organism-based, Canis lupus familiaris; parameters: dose 2.5 mg/kg, route intravenous; details: in vivo
Escherichia coli [49] = assay: Antibacterial activity against Escherichia coli after 30 hrs by broth microdilution method; assay type: functional, organism-based
[50] = Ratio of AUC (0 to 24 hrs) to MIC50 in Beagle dog infected with Staphylococcus intermedius clinical isolate at 2.5 mg/kg, im; assay type: functional; details: route intramuscular
[51] = Apparent volume of distribution in Beagle dog at 2.5 mg/kg, iv; assay type: ADME, organism-based, Canis lupus familiaris; parameters: dose 2.5 mg/kg, route intravenous; details: in vivo, read-out: Vz
[52] = Mean residence time (0 to 24 hrs) in Beagle dog at 2.5 mg/kg, im; assay type: ADME, organism-based, Canis lupus familiaris; parameters: dose 2.5 mg/kg, route intramuscular; details: in vivo

- half-life [2]: 3.95 h
- RatioAUC/MIC [5]: 31.1
- bioavailability [6]: 100%
- RatioAUC/MIC [7]: 134.6
- RatioAUC/MIC [8]: 31.1
- T>MIC [9]: 9.15 h
- k el [10]: 4.72e-05 s⁻¹
- T>MIC [11]: 9.15 h
- RatioAUC/MIC [12]: 129.8
- RatioAUC/MIC [13]: 32.3
- T>MIC [14]: 8.75 h
- T>MIC [15]: 5.6 h
- MIC [16]: 0.25 µg/mL (≈ 0.632 µM)
- AUC(0-t) at 24 h [18]: 8070 ng·h/mL
- MRT inf [19]: 5.13 h
- Tmax [20]: 1.15 h
- RatioAUC/MIC [21]: 32.3
- MAT (Canis familiaris): 0.51 h
- AUC(0-inf) [22]: 8490 ng·h/mL
- Cmax [23]: 1150 ng/mL
- MRT last [24]: 4.71 h
- k el [25]: 4.72e-05 s⁻¹
- T>MIC [26]: 6.5 h
- RatioAUC/MIC [27]: 16.1
- RatioAUC/MIC [28]: 40
- MIC (Staphylococcus aureus [31]): 0.25 µg/mL (≈ 0.632 µM)
- T>MIC [32]: 21.3 h
- Vd [34]: 1.61 L/kg
- AUC(0-t) at 24 h [35]: 8370 ng·h/mL
- AUC(0-inf) [36]: 8210 ng·h/mL
- MRT inf [37]: 5.69 h
- MIC (Proteus mirabilis [38]): 0.5 µg/mL (≈ 1.26 µM)
- RatioAUC/MIC [39]: 15.5
- RatioAUC/MIC [40]: 26.7
- half-life [41]: 4.23 h
- MIC (Staphylococcus aureus [42]): 0.5 µg/mL (≈ 1.26 µM)
- MIC (Escherichia coli [43]): 0.06 µg/mL (≈ 0.152 µM)
- T>MIC [46]: 21.1 h
- T>MIC [47]: 8.75 h
- clearance [48]: 5.17 mL/min/kg
- Vd [51]: 1.95 L/kg
- MRT last [52]: 5.31 h
Compound: C[C@@H]1CN(c2c(F)c(F)c3c(=O)c(C(=O)O)cn(C4CC4)c3c2F)C[C@H](C)N1 [ORBIFLOXACIN]
- CFU/ml [1]: 2.06
- Ratio [3]: 2.3
- Ratio [4]: 4.61
- Ratio [17]: 19.1
- RatioAUC/MIC [29]: 31.8
- Activity (Proteus mirabilis [30]): Dose-dependent effect
- Activity (Staphylococcus aureus [33]): Dose-dependent effect
- Activity [44]: Dose-dependent effect
- Ratio [45]: 4.61
- Activity (Escherichia coli [49]): Dose-dependent effect
- Ratio [50]: 29
